Measurements reported in ChEMBL document CHEMBL1201862, “PubChem BioAssay data set” (2004).
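Growth conditions: 96-well plates. Treatment: test compound, 48 hours, 5 concentrations. Analysis: linear interpolation between bracketing concentrations; unreached endpoints set to highest concentration. The concentration for 50% growth inhibition is given as GI50.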 Calls of active or inactive are those of the source. Rule as the data show it: active = GI50 up to about 1.1 µM and inactive = higher.

Key:
Assay in all cases: DTP human tumour cell line panel, 48 h
786-0 = test system: 786-0
A498 = test system: A498
A549 = test system: A549
ACHN = test system: ACHN
CAKI-1 = test system: CAKI-1
CCRF-CEM = test system: CCRF-CEM
COLO 205 = test system: COLO 205
DLD-1 = test system: DLD-1
DMS-114 = test system: DMS-114
DMS-273 = test system: DMS-273
EKVX = test system: EKVX
HCC 2998 = test system: HCC 2998
HCT-116 = test system: HCT-116
HCT-15 = test system: HCT-15
HL-60 = test system: HL-60
HOP-18 = test system: HOP-18
HOP-62 = test system: HOP-62
HT-29 = test system: HT-29
IGROV-1 = test system: IGROV-1
K562 = test system: K562
KM-20L2 = test system: KM-20L2
KM12 = test system: KM12
LOX IMVI = test system: LOX IMVI
LXFL 529 = test system: LXFL 529
M14 = test system: M14
M19-MEL = test system: M19-MEL
MOLT-4 = test system: MOLT-4
Malme-3M = test system: Malme-3M
NCI-H226 = test system: NCI-H226
NCI-H23 = test system: NCI-H23
NCI-H460 = test system: NCI-H460
NCI-H522 = test system: NCI-H522
OVCAR-3 = test system: OVCAR-3
OVCAR-4 = test system: OVCAR-4
OVCAR-5 = test system: OVCAR-5
OVCAR-8 = test system: OVCAR-8
RPMI-8226 = test system: RPMI-8226
RXF 631 = test system: RXF 631
SF-268 = test system: SF-268
SF-295 = test system: SF-295
SF-539 = test system: SF-539
SK-MEL-28 = test system: SK-MEL-28
SK-MEL-2 = test system: SK-MEL-2
SK-MEL-5 = test system: SK-MEL-5
SK-OV-3 = test system: SK-OV-3
SN12C = test system: SN12C
SNB-19 = test system: SNB-19
SNB-75 = test system: SNB-75
SNB-78 = test system: SNB-78
SR = test system: SR
SW-620 = test system: SW-620
TK-10 = test system: TK-10
U-251 = test system: U-251
UACC-257 = test system: UACC-257
UACC-62 = test system: UACC-62
UO-31 = test system: UO-31
XF498 = test system: XF498

With `COc1ccc2c(c1)[n+]([O-])c(C(=O)C/C(=N/OCCCc1ccccc1)C(=O)NC13CC4CC(CC(C4)C1)C3)c(C)[n+]2[O-]` as the molecule, how does the GI50 (786-0) read?
Its GI50 is > 100 µM (inactive).

And the GI50 (A498)?
Its GI50 is > 100 µM (inactive).

What about the GI50 (A549) of the same molecule?
The GI50 was > 100 µM (inactive).

And the GI50 (ACHN)?
Its GI50 is > 100 µM (inactive).

And the GI50 (CAKI-1)?
Its GI50 is > 100 µM (inactive).

And the GI50 (CCRF-CEM)?
The GI50 was 54.8 µM (inactive).

And the GI50 (COLO 205)?
The GI50 was > 100 µM (inactive).

And the GI50 (DLD-1)?
Its GI50 is > 100 µM (inactive).

And the GI50 (DMS-114)?
Its GI50 is > 100 µM (inactive).

And the GI50 (DMS-273)?
The GI50 was > 100 µM (inactive).

And the GI50 (EKVX)?
The GI50 was > 100 µM (inactive).

What about the GI50 (HCC 2998) of the same molecule?
The GI50 was > 100 µM (inactive).

What about the GI50 (HCT-116) of the same molecule?
The GI50 was > 100 µM (inactive).

And the GI50 (HCT-15)?
The GI50 was > 100 µM.

And the GI50 (HL-60)?
Its GI50 is > 100 µM (inactive).

What about the GI50 (HOP-18) of the same molecule?
Its GI50 is > 100 µM (inactive).

And the GI50 (HOP-62)?
The GI50 was > 100 µM (inactive).

And the GI50 (HT-29)?
Its GI50 is > 100 µM (inactive).

What about the GI50 (IGROV-1) of the same molecule?
The GI50 was > 100 µM (inactive).

What about the GI50 (K562) of the same molecule?
The GI50 was 82.8 µM (inactive).

And the GI50 (KM-20L2)?
The GI50 was > 100 µM (inactive).

And the GI50 (KM12)?
The GI50 was > 100 µM (inactive).

And the GI50 (LOX IMVI)?
Its GI50 is > 100 µM (inactive).

What about the GI50 (LXFL 529) of the same molecule?
Its GI50 is > 100 µM (inactive).

What about the GI50 (M14) of the same molecule?
The GI50 was > 100 µM (inactive).

And the GI50 (M19-MEL)?
Its GI50 is > 100 µM (inactive).

What about the GI50 (MOLT-4) of the same molecule?
The GI50 was > 100 µM (inactive).

What about the GI50 (Malme-3M) of the same molecule?
The GI50 was > 100 µM (inactive).

And the GI50 (NCI-H226)?
Its GI50 is > 100 µM (inactive).

And the GI50 (NCI-H23)?
The GI50 was > 100 µM (inactive).

And the GI50 (NCI-H460)?
The GI50 was > 100 µM (inactive).

What about the GI50 (NCI-H522) of the same molecule?
Its GI50 is > 100 µM (inactive).

What about the GI50 (OVCAR-3) of the same molecule?
The GI50 was > 100 µM (inactive).

And the GI50 (OVCAR-4)?
Its GI50 is > 100 µM (inactive).

What about the GI50 (OVCAR-5) of the same molecule?
Its GI50 is > 100 µM (inactive).

What about the GI50 (OVCAR-8) of the same molecule?
The GI50 was > 100 µM (inactive).

And the GI50 (RPMI-8226)?
The GI50 was > 100 µM (inactive).

What about the GI50 (RXF 631) of the same molecule?
Its GI50 is > 100 µM (inactive).

What about the GI50 (SF-268) of the same molecule?
Its GI50 is > 100 µM (inactive).

What about the GI50 (SF-295) of the same molecule?
Its GI50 is > 100 µM (inactive).

What about the GI50 (SF-539) of the same molecule?
The GI50 was > 100 µM (inactive).

And the GI50 (SK-MEL-28)?
The GI50 was > 100 µM (inactive).

And the GI50 (SK-MEL-2)?
Its GI50 is > 100 µM (inactive).

And the GI50 (SK-MEL-5)?
The GI50 was > 100 µM (inactive).

And the GI50 (SK-OV-3)?
Its GI50 is > 100 µM (inactive).

What about the GI50 (SN12C) of the same molecule?
The GI50 was > 100 µM (inactive).

And the GI50 (SNB-19)?
Its GI50 is > 100 µM (inactive).

What about the GI50 (SNB-75) of the same molecule?
Its GI50 is > 100 µM (inactive).

And the GI50 (SNB-78)?
The GI50 was > 100 µM (inactive).

What about the GI50 (SR) of the same molecule?
The GI50 was > 100 µM (inactive).

And the GI50 (SW-620)?
The GI50 was > 100 µM (inactive).

And the GI50 (TK-10)?
The GI50 was > 100 µM (inactive).

What about the GI50 (U-251) of the same molecule?
The GI50 was > 100 µM (inactive).

What about the GI50 (UACC-257) of the same molecule?
Its GI50 is > 100 µM (inactive).

And the GI50 (UACC-62)?
Its GI50 is > 100 µM (inactive).

And the GI50 (UO-31)?
The GI50 was > 100 µM (inactive).

What about the GI50 (XF498) of the same molecule?
The GI50 was > 100 µM (inactive).
